Measured values: patent US20210283163A1, “COMPOSITIONS AND METHODS FOR THE TREATMENT OF ACUTE AND CHRONIC PRURITIS” (Duke University, priority 2018, published 2021)

Columns and labels:
Format in all cases: cell-based
[1] = target: T1, mTRPA1 mutants (M1-M13) (Mus musculus, UniProt Q8BLA8, P937A); assay: Whole-cell patch clamp in CHO cells transfected with mutant mTrpa1 cDNAs (M1-M13); settings: M11, single residue mutation of mP937
T1 construct: HA; expressed in transfected cells; host or cells: CHO cells (ATCC CRL-9096), transient transfection
T1 sequence (Q8BLA8 whole entry P937A): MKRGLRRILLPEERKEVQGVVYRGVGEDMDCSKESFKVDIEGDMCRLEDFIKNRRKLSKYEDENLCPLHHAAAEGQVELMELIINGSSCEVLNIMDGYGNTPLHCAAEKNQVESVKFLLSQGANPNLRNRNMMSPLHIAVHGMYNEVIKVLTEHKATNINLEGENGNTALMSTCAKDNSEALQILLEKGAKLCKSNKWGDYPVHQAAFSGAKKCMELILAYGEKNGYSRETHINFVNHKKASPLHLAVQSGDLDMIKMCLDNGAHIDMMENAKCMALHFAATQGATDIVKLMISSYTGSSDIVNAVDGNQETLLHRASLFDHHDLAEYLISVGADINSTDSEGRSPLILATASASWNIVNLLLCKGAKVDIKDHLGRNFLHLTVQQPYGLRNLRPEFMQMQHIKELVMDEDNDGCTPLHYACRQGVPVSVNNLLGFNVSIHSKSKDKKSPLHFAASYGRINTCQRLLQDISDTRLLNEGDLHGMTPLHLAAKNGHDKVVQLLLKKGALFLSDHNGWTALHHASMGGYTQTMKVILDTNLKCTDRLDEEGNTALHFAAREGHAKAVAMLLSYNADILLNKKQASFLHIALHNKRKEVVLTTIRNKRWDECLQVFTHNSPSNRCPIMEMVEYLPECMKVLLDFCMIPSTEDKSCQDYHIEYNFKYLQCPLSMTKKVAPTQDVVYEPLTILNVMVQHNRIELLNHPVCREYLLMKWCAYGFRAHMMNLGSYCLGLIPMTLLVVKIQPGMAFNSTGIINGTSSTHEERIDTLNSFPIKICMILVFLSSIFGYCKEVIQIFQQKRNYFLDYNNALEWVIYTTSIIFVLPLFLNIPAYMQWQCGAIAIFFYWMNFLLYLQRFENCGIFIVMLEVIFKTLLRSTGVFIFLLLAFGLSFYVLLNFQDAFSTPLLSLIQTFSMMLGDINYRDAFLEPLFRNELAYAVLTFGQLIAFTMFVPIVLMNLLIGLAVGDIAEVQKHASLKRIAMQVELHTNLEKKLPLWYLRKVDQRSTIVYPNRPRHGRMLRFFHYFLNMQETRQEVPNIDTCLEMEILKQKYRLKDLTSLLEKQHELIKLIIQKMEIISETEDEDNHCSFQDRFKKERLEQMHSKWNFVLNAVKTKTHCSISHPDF
Experimental: (§1) Constructs. The cDNAs of mouse pcDNA3.1-Trpa1, pcDNA3.1-Trpv1, pcDNA3.1-Trpv2, pcDNA3.1-Trpv3, and pcDNA3.1-Trpv4 were kindly provided Dr. Sun Work Hwang from Korea University. Mouse Trpa1 cDNA was subcloned into pCGN-HA backbone (Addgene) using In-Fusion HD Cloning Kit (Clontech Laboratories, CA). Q5 Site-Directed Mutagenesis Kit was used to generate mTrpa1 mutant (M1-M13) based on pCGN-mTrpa1.
(§2) Cell Culture and Transfection. CD4^+ Myla cell line was cultured in RPMI 1640 media (GIBCO), supplemented with 2 mM Glutamine (GIBCO), 100 U/mL IL-2 (Sigma), 100 U/mL IL-4 (Sigma), and 10% human AB serum (Sigma). HuT 102 cell line was cultured in RPMI 1640 supplemented with pyruvate, HEPES, and 10% (v/v) fetal bovine serum (HyClone). HEK293-hTRPA1 stable cell line was cultured in MEM (GIBCO) containing 2 mM Glutamine, 4 μg/mL Blasticidin, 10% FBS (v/v). B16 and CHO cells were cultured in high glucose (4.5 g/L) Dulbecco's Modified Eagle's Medium (GIBCO) containing 10% (v/v) fetal bovine serum (GIBCO). Culture media were supplemented with 50 units/mL of penicillin and 50 μg/mL streptomycin, and cultures were maintained with 5% CO2 in 37° C. incubator. Transfection (2 μg cDNA) was performed with Lipofectamine™ 2000 Reagent (Invitrogen) at 80% confluency and the transfected cells were cultured in the same media for 48 hr before electrophysiological and biochemical studies.
(§3) Whole-Cell Patch Clamp Recordings in HEK293 Cells, CHO Cells, and DRG Neurons. Whole-cell patch clamp recordings were performed at room temperature using an Axopatch-200B amplifier (Axon Instruments) with a Digidata 1440B (Axon Instruments). In this study, we only examined small-diameter mouse DRG neurons (<25 μM) and small-diameter human DRG neurons (<55 μM). The patch pipettes were pulled from borosilicate capillaries (World Precision Instruments) using a P-97 Flaming/Brown micropipette puller (Sutter Instrument). Pipette resistance was 4-6 MΩ for whole-cell and outside-out recording. For inward current recordings in mouse and human DRG neurons, HEK293 cells, and CHO cells, the internal solution contains (in mM): 140 CsCl, 10 EGTA, 10 HEPES, and 2 Mg-ATP, adjusted to pH 7.3 with CsOH. Whole cell recordings were performed in an extracellular solution that contains (in mM): 140 NaCl, 5 KCl, 2 MgCl2, 10 HEPES, and 10 glucose, adjusted to pH 7.4 with NaOH and osmolarity to 300-310 mOsm. […] Action potential recordings were performed in small-diameter DRG neurons, with the following solutions: i) internal pipette solution contains: 126 mM K-gluconate, 10 mM NaCl, 1 mM MgCl2, 10 mM EGTA, 10 mM HEPES and 2 mM Na-ATP, adjusted to pH 7.4 with KOH and osmolarity to 295-300 mOsm), and ii) extracellular solution contains: 140 mM NaCl, 5 mM KCl, 2 mM MgCl2, 2 mM CaCl2, 10 mM HEPES, 10 mM glucose, adjusted to pH 7.4 with KOH.

[2] = target: T2, mTRPA1 mutants (M1-M13) (Mus musculus, UniProt Q8BLA8, L939A/P937A/Y936A); assay: as above; settings: M13, triple mutations (Y936, P937, and L939)
T2 construct: HA; expressed in transfected cells; host or cells: CHO cells (ATCC CRL-9096), transient transfection
T2 sequence (Q8BLA8 whole entry Y936A/P937A/L939A): as the sequence (Q8BLA8 whole entry P937A) above, with Y936A, L939A counted along it
Experimental: as §1, §2, §3

[3] = target: T3, TRPV2 (Mus musculus, UniProt Q9WTR1); assay: Whole-cell patch clamp in CHO cells transfected with mouse Trpv2 cDNA; settings: miR-711 10 μM; cannabidiol 100 μM
T3 construct: expressed in transfected cells; host or cells: CHO cells (ATCC CRL-9096), plasmid pcDNA3.1-mTrpv2, a gift from Korea University
T3 sequence (Q9WTR1 1-756): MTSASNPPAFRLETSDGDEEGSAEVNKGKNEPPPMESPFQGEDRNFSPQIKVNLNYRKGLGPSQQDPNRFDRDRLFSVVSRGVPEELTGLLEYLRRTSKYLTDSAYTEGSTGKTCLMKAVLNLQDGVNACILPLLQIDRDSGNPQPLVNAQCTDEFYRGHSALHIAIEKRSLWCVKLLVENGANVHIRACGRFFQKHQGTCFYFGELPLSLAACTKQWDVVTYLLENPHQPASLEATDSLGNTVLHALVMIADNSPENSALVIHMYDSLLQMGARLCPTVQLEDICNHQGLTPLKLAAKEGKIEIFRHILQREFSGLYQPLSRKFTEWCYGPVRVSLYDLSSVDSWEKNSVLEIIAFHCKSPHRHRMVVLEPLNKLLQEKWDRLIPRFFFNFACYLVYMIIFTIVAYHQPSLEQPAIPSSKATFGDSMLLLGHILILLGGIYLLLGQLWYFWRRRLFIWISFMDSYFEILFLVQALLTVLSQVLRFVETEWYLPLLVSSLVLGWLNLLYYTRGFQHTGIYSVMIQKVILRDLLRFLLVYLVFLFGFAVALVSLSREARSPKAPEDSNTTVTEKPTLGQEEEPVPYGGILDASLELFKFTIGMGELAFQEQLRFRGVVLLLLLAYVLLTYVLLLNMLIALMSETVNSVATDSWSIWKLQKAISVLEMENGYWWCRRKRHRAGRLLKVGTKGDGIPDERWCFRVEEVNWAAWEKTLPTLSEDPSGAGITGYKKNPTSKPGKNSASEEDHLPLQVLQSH
Experimental: as §1
as §2, with “studies. […]” for “studies.”

[4] = target: T4, TRPV4 (Mus musculus, UniProt Q9EPK8); assay: Whole-cell patch clamp in CHO cells transfected with mouse Trpv4 cDNA; settings: miR-711 10 μM; GSK1016790A 1 μM
T4 construct: expressed in transfected cells; host or cells: CHO cells (ATCC CRL-9096), plasmid pcDNA3.1-mTrpv4, a gift from Korea University
T4 sequence (Q9EPK8 whole entry): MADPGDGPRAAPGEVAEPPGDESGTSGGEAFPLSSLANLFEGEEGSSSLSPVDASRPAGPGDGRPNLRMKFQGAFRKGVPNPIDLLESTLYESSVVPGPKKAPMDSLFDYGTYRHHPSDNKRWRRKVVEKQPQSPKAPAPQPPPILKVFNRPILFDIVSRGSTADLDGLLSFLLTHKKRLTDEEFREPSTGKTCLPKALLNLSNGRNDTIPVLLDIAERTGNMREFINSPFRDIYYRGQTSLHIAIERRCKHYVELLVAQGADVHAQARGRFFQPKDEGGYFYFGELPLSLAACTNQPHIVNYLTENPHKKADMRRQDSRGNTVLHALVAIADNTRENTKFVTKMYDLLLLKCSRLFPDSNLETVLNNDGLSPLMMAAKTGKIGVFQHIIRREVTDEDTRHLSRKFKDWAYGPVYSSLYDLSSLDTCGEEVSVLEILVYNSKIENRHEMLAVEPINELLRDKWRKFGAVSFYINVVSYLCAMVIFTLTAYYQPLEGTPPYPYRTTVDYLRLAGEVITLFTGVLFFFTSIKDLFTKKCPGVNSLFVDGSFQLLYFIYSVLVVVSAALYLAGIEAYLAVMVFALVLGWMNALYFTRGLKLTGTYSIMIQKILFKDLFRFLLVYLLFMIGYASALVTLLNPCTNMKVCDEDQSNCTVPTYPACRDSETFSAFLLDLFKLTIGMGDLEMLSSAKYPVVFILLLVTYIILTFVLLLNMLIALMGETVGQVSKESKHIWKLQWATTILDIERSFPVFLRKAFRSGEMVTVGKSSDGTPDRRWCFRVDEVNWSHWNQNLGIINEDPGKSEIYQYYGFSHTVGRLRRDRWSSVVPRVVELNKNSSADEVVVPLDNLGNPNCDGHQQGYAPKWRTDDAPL
Experimental: as §1
as §2, with “studies. […]” for “studies.”

With “miR-711: mmu-miR-711: gggacccggggagagauguaag (SEQ ID NO: 5) (GGGACCCGGGGAGAGAUGUAAG; chemistry not given here)” the “evoked currents in mutant” value [1] was “markedly reduced”, the current in mutant [2] was “further reduction” and the inward currents [3] was “failed to trigger inward currents”. The inward currents [4] was “failed to trigger inward currents”.
